One experiment deals with T1, aromatase (Rattus norvegicus, UniProt P22443).
T1 construct: ovarian microsomes are obtained from rats treated with pregnant mares serum gonadotropin; from tissue; host or cells: ovarian microsomes from rats treated with pregnant mares serum gonadotropin
T1 sequence (P22443 1-508): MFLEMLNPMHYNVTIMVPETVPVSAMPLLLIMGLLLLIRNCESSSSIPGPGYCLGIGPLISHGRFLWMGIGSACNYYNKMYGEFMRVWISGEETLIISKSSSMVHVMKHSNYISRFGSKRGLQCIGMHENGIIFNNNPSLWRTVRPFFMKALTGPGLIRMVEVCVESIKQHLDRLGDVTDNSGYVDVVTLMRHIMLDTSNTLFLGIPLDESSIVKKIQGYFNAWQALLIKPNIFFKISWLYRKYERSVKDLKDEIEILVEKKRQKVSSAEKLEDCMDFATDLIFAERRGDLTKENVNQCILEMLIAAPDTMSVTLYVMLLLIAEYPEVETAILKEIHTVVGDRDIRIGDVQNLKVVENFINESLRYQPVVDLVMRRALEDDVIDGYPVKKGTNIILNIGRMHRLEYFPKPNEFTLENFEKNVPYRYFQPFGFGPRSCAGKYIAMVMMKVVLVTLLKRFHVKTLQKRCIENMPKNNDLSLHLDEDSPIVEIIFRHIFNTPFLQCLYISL
Description: Aromatase inhibition in the rat ovarian microsome assay. Type of experiment: biochemical.

In experiment [1] the test system is uterus (weight stimulated by estrogens produced by aromatization). The experiment in a line: Estrogen synthesis inhibition in rats: uterine weight after testosterone propionate. The conditions noted are these: 7 days, testosterone-treated control: Test I 180.3, Test II 210.4, corn oil control: 66.7, 101.4. Type of experiment: in vivo, rat (immature female Wistar). As to the method: Immature female Wistar rats (45-55 grams) were divided into control and test groups of 4-8 animals each. Test compounds were administered for seven days as a component of the diet. Control animals received diet without the test compound. Beginning on the fourth day of the test, all animals treated with the test compound and one half of the control animals were given a subcutaneous injection of 1.0 mg of testosterone propionate in corn oil. The remaining control animals received only an equivalent volume of corn oil. On the seventh day of the test, rats treated with testosterone propionate were injected subcutaneously with 100 μCi of [^3 H]-testosterone in 50 μl of 3:1 (v/v) saline-ethanol.
After two hours, the animals were killed by decapitation. Uteri were isolated, trimmed of extraneous connective tissue, and weighted. […] In the control animals treated with testosterone propionate, estrogens produced by aromatization stimulated the uterus resulting in an increase in weight.

The subject of experiment [2] is estrogen synthesis (ovarian estradiol, estrone, estriol). Description: Estrogen synthesis inhibition in rats: ovarian steroid concentrations after [3H]-testosterone. It is filed as in vivo, rat (immature female Wistar). The conditions noted are these: 7 days, ovary; for Mean Steroid Concentration, estriol: testosterone-treated control: Test I 0.41, Test II 0.17; for Mean Steroid Concentration, estrone: testosterone-treated control: Test I 0.88, Test II 0.41; for Mean Steroid Concentration, estradiol: testosterone-treated control: Test I 2.29, Test II 0.78.
Description: The ovarian steroids were extracted with 1.5 ml of 9:1 (v/v) toluene/ethanol to which had been added 25 to 100 mcg each of unlabelled estradiol, estriol, and estrone, and approximately 1000 dpm of [^14 C]-estradiol. The samples were vortexed, centrifuged at 500×g for 10 minutes, and the organic phase was transferred to a conical vial. Two additional extractions were performed on the residue in the same way. The pooled organic extract were evaporated for subsequent thin-layer chromatography.
The organic residue from each above extraction was redissolved in 9:1 (v/v) dichloromethane/methanol. The solution of each sample was applied to separate silica gel thin layer chromatography plates which contained a fluorescent indicator. The plates were developed in the first dimension with 160:38:1.5:0.5 (v/v/v/v) dichloromethane/ethyl acetate/methanol/acetic acid to within 3 cm of the top of the plate. After air-drying, the plate was developed in the second dimension with 180:19:1 (v/v/v) dichloromethane/methanol/ammonium hydroxide.
The spots were scraped from the plate using a glass wool plugged Pasteur pipet attached to a vacuum line. The steroids were eluted directly into scintillation vials by the addition of 0.2 ml of dichloromethane followed by two washes each of 2.0 ml of methanol. The organic solvent was evaporated and 10.0 ml of scintillation fluid (Beckman Ready Solv-NA) was added to the vials. Samples were analyzed by liquid scintillation spectrometry. Corrections were made based on the recoveries of the [^14 C]-steroid. Steroid concentrations are expressed as femtomoles per milligram protein.

The mark [3] stands for this setting: rat ovarian microsomes, substrate 4-androstene-3,17-dione 0.1 μM, [3H]-H2O release.
Setting [4] is: 30 ppm in feed (approx. 3 mg/kg/day).
Setting [5] is: 300 ppm in feed (approx. 30 mg/kg/day).

Each structure is given as a SMILES string. Like-named read-outs stand apart in the source and are kept apart here.

Description for aromatase: In this test system, ovarian microsomes are obtained from rats treated with pregnant mares serum gonadotropin. Test compounds are added to reaction vials containing 0.1 μM 4-androstene-3,17-dione, 100,000 dpm 1,2[^3 H]-androstenedione, the microsomes and a NADPH generating system. The concentrations of the inhibitors tested ranged between 0.005 and 10 μM.

Take `CCCCN(c1ccc(Cl)cc1)C(c1ccccc1)c1cccnc1` (stereo not drawn) [N--butyl-N--(4-chlorophenyl)-α-phenyl-3-pyridinemethanamine]: a half-maximal effect at aromatase (setting [3]) (EC50) was put at 290 nM.

For `Fc1ccc(N(Cc2ccccc2)Cc2cccnc2)c(F)c1` [N--(2,4-difluorophenyl)-N--benzyl-3-pyridinemethanamine], the “Mean Uterine Weight” value in experiment [1] (setting [4]) amounted to 196.3 mg. In addition, in experiment [1] (setting [5]), the “Mean Uterine Weight” value is recorded as 171.4 mg. Also, the EC50 on aromatase (setting [3]) is below 50 nM. Further, in experiment [2] (setting [4]), the “Mean Steroid Concentration, estriol” value was 0.44 femtomoles per milligram of protein; the “Mean Steroid Concentration, estrone” value was 0.00 femtomoles per milligram of protein; the “Mean Steroid Concentration, estradiol” value is given as 0.84 femtomoles per milligram of protein. For the same molecule, in experiment [2] (setting [5]), the “Mean Steroid Concentration, estriol” value is 0.32 femtomoles per milligram of protein; the “Mean Steroid Concentration, estrone” value is 0.00 femtomoles per milligram of protein; the “Mean Steroid Concentration, estradiol” value is 0.44 femtomoles per milligram of protein.

`CCCCN(c1ccc(F)cc1)C(C)c1cccnc1` (stereo not drawn) [N--butyl-N--(4-fluorophenyl)-α-methyl-3-pyridinemethanamine] had an EC50 at aromatase (setting [3]) of 370 nM. This lies in the sub-micromolar range.

For `CC(c1cccnc1)N(Cc1ccccc1)c1ccc(Cl)cc1` (stereo not drawn) [N--(4-chlorophenyl)-α-methyl-N--benzyl-3-pyridinemethanamine], the 50% effective concentration (EC50) on aromatase (setting [3]) was 1200 nM.

`C#CCN(Cc1cccnc1)c1ccc(Cl)cc1Cl` [N--(2,4-dichlorophenyl)-N--(2-propynyl)-3-pyridinemethanamine] registered an EC50 on aromatase of 165 nM. This lies in the sub-micromolar range.

`CCCCCCN(Cc1cccnc1)c1ccc(Cl)cc1Cl` [N--(2,4-dichlorophenyl)-N--hexyl-3-pyridinemethanamine] showed an EC50 on aromatase of 1200 nM.

Molecule `CCCCN(Cc1cccnc1)c1ccc(C)cc1C` [N--butyl-N--(2,4-dimethylphenyl)-3-pyridinemethanamine] came in with an EC50 at aromatase (setting [3]) of 630 nM.

With `Fc1ccc(C(Nc2ccccc2Cl)c2cccnc2)cc1` (stereo not drawn) [N--(2-chlorophenyl)-α-(4-fluorophenyl)-3-pyridinemethanamine], the “Mean Uterine Weight” value in experiment [1] (setting [4]) turned out to be 154.3 mg. Besides, the “Mean Uterine Weight” value in experiment [1] (setting [5]) turned out to be 157.4 mg. The molecule also yielded an EC50 on aromatase (setting [3]) of 80 nM. For the same molecule, in experiment [2] (setting [4]), the “Mean Steroid Concentration, estriol” value is reported as 0.51 femtomoles per milligram of protein; the “Mean Steroid Concentration, estrone” value is 0.47 femtomoles per milligram of protein; the “Mean Steroid Concentration, estradiol” value is listed as 2.67 femtomoles per milligram of protein. For the same molecule, in experiment [2] (setting [5]), the “Mean Steroid Concentration, estriol” value was 0.37 femtomoles per milligram of protein; the “Mean Steroid Concentration, estrone” value is 0.31 femtomoles per milligram of protein; the “Mean Steroid Concentration, estradiol” value is 1.64 femtomoles per milligram of protein.

For the molecule `C=CCN(Cc1cccnc1)c1ccc(Cl)cc1Cl` [N--(2,4-dichlorophenyl)-N--(2-propenyl)-3-pyridinemethanamine], at aromatase (setting [3]), the half-maximal effective concentration (EC50) turned out to be 750 nM.

The molecule `CC=CCN(Cc1cccnc1)c1ccc(Cl)cc1Cl` [N--(2-butenyl)-N--(2,4-dichlorophenyl)-3-pyridinemethanamine] showed a half-maximal effective concentration (EC50) on aromatase of 359 nM.

On aromatase (setting [3]), `CC(c1cccnc1)N(C)c1ccc(Cl)cc1` (stereo not drawn) [N--(4-chlorophenyl)-N,α-dimethyl-3-pyridinemethanamine] yielded an EC50 of 2000 nM.

With `Clc1ccc(N(Cc2ccccc2)Cc2cccnc2)c(Cl)c1` [N--(2,4-dichlorophenyl)-N--benzyl-3-pyridinemethanamine], the response on aromatase (setting [3]) was half-maximal at 310 nM (EC50).

`CN(c1ccc(Cl)cc1)C(c1ccccc1)c1cccnc1` (stereo not drawn) [N--(4-chlorophenyl)-N--methyl-α-phenyl-3-pyridinemethanamine] displayed an EC50 on aromatase (setting [3]) of 2500 nM.

In turn, `CCCCN(Cc1ccc(Cl)cc1)c1cnccn1` [N--butyl-N--[(4-chlorophenyl)methyl]pyrazinamine] came in with an EC50 at aromatase (setting [3]) of 740 nM. This EC50 lies about 3.4-fold lower than the previous one.
